# Laboratory results from ChEMBL document CHEMBL3745641, “Discovery and Structure-Guided Optimization of Diarylmethanesulfonamide Disrupters of Glucokinase-Glucokinase Regulatory Protein (GK-GKRP) Binding: Strategic Use of a N → S (nN → σ*S-X) Interaction for Conformational Constraint” (J Med Chem, 2015).
# How the values were obtained:
# [1] = Intrinsic clearance in rat liver microsomes after 30 mins; type: ADME; conditions: read-out: CLH
# [2] = Apparent permeability from apical to basolateral side in pig LLC-PK1 cells; type: ADME, cell-based, Sus scrofa
# [3] = biological target: T1, Glucokinase regulatory protein (Mus musculus, UniProt Q91X44); experiment: Inhibition of glucokinase-GKRP binding interaction in mouse hepatocytes assessed as induction of glucokinase translocation; type: cell-based, Hepatocyte
# T1 sequence (Q91X44 whole entry): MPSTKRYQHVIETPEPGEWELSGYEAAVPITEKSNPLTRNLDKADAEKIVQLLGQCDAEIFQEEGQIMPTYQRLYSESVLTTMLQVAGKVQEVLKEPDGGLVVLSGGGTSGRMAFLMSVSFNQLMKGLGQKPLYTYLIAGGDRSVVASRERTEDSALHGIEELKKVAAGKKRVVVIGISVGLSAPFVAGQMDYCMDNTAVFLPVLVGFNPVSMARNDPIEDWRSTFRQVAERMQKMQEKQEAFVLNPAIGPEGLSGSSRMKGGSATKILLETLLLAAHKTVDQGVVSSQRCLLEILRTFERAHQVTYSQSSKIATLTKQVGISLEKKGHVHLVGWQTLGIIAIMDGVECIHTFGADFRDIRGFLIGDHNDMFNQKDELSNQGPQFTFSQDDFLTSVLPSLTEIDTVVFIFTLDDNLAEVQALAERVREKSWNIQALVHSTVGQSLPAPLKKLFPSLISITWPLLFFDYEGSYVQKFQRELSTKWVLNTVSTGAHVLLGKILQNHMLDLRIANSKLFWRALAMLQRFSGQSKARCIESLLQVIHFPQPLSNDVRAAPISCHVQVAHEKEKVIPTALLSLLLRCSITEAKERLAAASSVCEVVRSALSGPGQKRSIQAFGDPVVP
# [4] = Cmax in Sprague-Dawley rat at 10 mg/kg, po; type: ADME, organism-based; set-up: dose 10 mg/kg, route oral; conditions: in vivo
# [5] = Plasma concentration in Sprague-Dawley rat at 10 mg/kg, po qd after 6 hrs; type: ADME, organism-based
# [6] = Plasma concentration in Sprague-Dawley rat at 10 mg/kg, po qd at 24 hrs; type: ADME, organism-based
# [7] = test system: Blood; experiment: Drug uptake in po dosed db/db mouse blood administered qd measured after 6 hrs; type: ADME, organism-based; conditions: in vivo
# [8] = test system: Plasma; experiment: Drug uptake in po dosed Sprague-Dawley rat plasma administered qd measured after 6 hrs; type: ADME, organism-based; conditions: in vivo
# [9] = Drug uptake in db/db mouse blood at 100 mg/kg, po qd after 6 hrs; type: ADME, organism-based; conditions: whole blood, read-out: Drug uptake
# [10] = Plasma concentration in Sprague-Dawley rat at 100 mg/kg, po qd after 6 hrs; type: ADME, organism-based
# [11] = Plasma concentration in Sprague-Dawley rat at 100 mg/kg, po qd at 24 hrs; type: ADME, organism-based
# [12] = Volume of distribution at steady state in Sprague-Dawley rat at 2 mg/kg, iv; type: ADME, organism-based; conditions: in vivo, read-out: Vdss
# [13] = Clearance in Sprague-Dawley rat at 2 mg/kg, iv; type: ADME, organism-based; conditions: in vivo
# [14] = Plasma protein binding in rat by rapid equilibrium dialysis method; type: ADME, cell-free; conditions: read-out: PPB
# [15] = Drug uptake in db/db mouse blood at 10 mg/kg, po qd after 6 hrs; type: ADME, organism-based; conditions: whole blood, read-out: Drug uptake
# [16] = Drug uptake in db/db mouse blood at 30 mg/kg, po qd after 6 hrs; type: ADME, organism-based; conditions: whole blood, read-out: Drug uptake
# [17] = Half life in Sprague-Dawley rat at 2 mg/kg, iv; type: ADME, organism-based; conditions: in vivo
# [18] = Oral bioavailability in Sprague-Dawley rat at 10 mg/kg; type: ADME, organism-based; conditions: in vivo
# [19] = Tmax in Sprague-Dawley rat at 10 mg/kg, po; type: ADME, organism-based; conditions: in vivo
# [20] = test system: Mus musculus; experiment: Antidiabetic activity in db/db mouse assessed as reduction in blood glucose level at 100 mg/kg, po qd after 3 hrs relative to control; type: functional; set-up: scale not given: the % may be the effect or the level left
# [21] = test system: Mus musculus; experiment: Antidiabetic activity in db/db mouse assessed as reduction in blood glucose level at 100 mg/kg, po qd after 6 hrs relative to control; type: functional; set-up: scale not given: the % may be the effect or the level left
# [22] = Drug uptake in db/db mouse blood at 100 mg/kg, po qd after 3 hrs; type: ADME, organism-based; conditions: whole blood, read-out: Drug uptake
# [23] = biological target: T2, Hexokinase-4 (Homo sapiens, UniProt P35557); experiment: Binding affinity to human glucokinase by surface plasmon resonance analysis
# T2 sequence (P35557 whole entry): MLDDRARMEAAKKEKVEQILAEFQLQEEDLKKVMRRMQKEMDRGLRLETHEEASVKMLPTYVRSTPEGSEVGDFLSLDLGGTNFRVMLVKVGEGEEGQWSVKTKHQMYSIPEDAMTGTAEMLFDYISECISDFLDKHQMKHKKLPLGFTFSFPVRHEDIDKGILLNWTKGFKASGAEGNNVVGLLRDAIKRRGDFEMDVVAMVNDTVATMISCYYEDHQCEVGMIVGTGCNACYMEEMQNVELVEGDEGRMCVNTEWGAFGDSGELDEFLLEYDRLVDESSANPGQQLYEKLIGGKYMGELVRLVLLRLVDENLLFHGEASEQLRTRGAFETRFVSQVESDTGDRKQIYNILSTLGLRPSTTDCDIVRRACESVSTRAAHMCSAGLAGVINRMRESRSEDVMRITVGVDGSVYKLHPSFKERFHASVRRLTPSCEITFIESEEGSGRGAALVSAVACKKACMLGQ
# [24] = biological target: T2, Hexokinase-4; experiment: Effect on human glucokinase activity after 60 mins by luciferase-based luminescence assay in absence of human GKRP
microsomal CLint [1],Papp A→B [2],EC50 [3],Structure (SMILES),further results
> 399 µL/min/mg,,3.3 µM,O=S(=O)(N[C@@H](c1nc2cccnc2s1)c1ccccc1Cl)c1ccc2c(c1)OCCCO2,
> 399 µL/min/mg,,,O=S(=O)(N[C@@H](c1cc2ccccc2s1)c1ccccc1Cl)c1ccc2c(c1)OCCCO2,Kd [23]: > 10 µM
> 399 µL/min/mg,,> 12.5 µM,O=S(=O)(N[C@@H](c1cc2ccccc2s1)c1ccccc1Cl)c1ccc2c(c1)OCO2,
> 399 µL/min/mg,,> 12.5 µM,O=S(=O)(N[C@@H](c1cc2ccccc2s1)c1ccccc1Cl)c1ccc2c(c1)OCCO2,
> 399 µL/min/mg,,> 12.5 µM,O=S(=O)(N[C@@H](c1cc2ccccc2s1)c1ccccc1Cl)c1ccc2c(c1)OCC(F)(F)CO2,
> 399 µL/min/mg,,6.3 µM,O=S(=O)(N[C@@H](c1cc2ccccc2o1)c1ccccc1Cl)c1ccc2c(c1)OCCCO2,
304 µL/min/mg,,4.3 µM,O=S(=O)(N[C@@H](c1cc2ccccc2s1)c1ccccc1Cl)c1ccc2c(c1)OCC(O)CO2 (mixture of isomers),
> 399 µL/min/mg,,4.1 µM,O=S(=O)(N[C@@H](c1cc2ccccc2s1)c1ccccc1Cl)c1ccc2c(c1)OCC(F)CO2 (mixture of isomers),

# Continued, compound first:
Structure (SMILES),microsomal CLint [1],Papp A→B [2],EC50 [3],further results
C[C@@](O)(c1ccnc(-c2cccc3cc([C@H](NS(=O)(=O)C4CC4)c4ccccc4Cl)sc23)c1)C(F)(F)F,< 14 µL/min/mg,< 1.8 ×10⁻⁶ cm/s,,
CC(C)(O)c1ccnc(-c2cccc3cc([C@H](NS(=O)(=O)C4CC4)c4nc(N)ccc4Cl)sc23)c1,130 µL/min/mg,11 ×10⁻⁶ cm/s,,
COc1ccc(S(=O)(=O)N[C@@H](c2cc3ccccc3s2)c2ccccc2Cl)cc1,> 399 µL/min/mg,,> 12.5 µM,
CC(C)(O)c1ccnc(-c2cccc3cc([C@H](NS(=O)(=O)C4CC4)c4nc(N)ncc4Cl)sc23)c1,28 µL/min/mg,19 ×10⁻⁶ cm/s,,Cmax [4]: 1900 nM; concentration at 6 h [5]: 2900 nM; concentration at 24 h [6]: 200 nM; Drug uptake [7]: Dose-dependent effect; Drug uptake [8]: Dose-dependent effect; concentration at 6 h [9]: 19000 nM; concentration at 6 h [10]: 23000 nM; concentration at 24 h [11]: 210 nM; Vd [12]: 1.3 L/kg; clearance [13]: 4.67 mL/min/kg; fraction unbound [14]: 0.01; concentration at 6 h [15]: 1200 nM; concentration at 6 h [16]: 4100 nM; half-life [17]: 3 h; bioavailability [18]: 25%; Tmax [19]: 4.7 h
CC(C)(O)c1ccnc(-c2cccc3cc([C@H](NS(=O)(=O)C4CC4)c4c(Cl)cnc(N)c4F)sc23)c1,26 µL/min/mg,16 ×10⁻⁶ cm/s,,Cmax [4]: 2800 nM; Activity [20]: 45%; concentration at 24 h [6]: 220 nM; Drug uptake [8]: Dose-dependent effect; Activity [21]: 33%; concentration at 6 h [9]: 21000 nM; concentration at 24 h [11]: 6300 nM; Vd [12]: 1.6 L/kg; concentration at 3 h [22]: 25000 nM; clearance [13]: 6 mL/min/kg; fraction unbound [14]: 0.01; half-life [17]: 3.1 h; bioavailability [18]: 46%; Tmax [19]: 3.3 h
CC(C)(O)c1ccnc(-c2cccc3cc([C@H](NS(=O)(=O)C4CC4)c4ccccc4Cl)sc23)c1,34 µL/min/mg,7.5 ×10⁻⁶ cm/s,,
CC(C)(O)c1ccnc(-c2cccc3cc([C@H](NS(=O)(=O)C4CC4)c4nc(N)c(F)cc4Cl)sc23)c1,28 µL/min/mg,7.8 ×10⁻⁶ cm/s,,
CC(C)(O)c1ccnc(-c2cccc3cc([C@H](NS(=O)(=O)C4CC4)c4cc(N)ncc4Cl)sc23)c1,67 µL/min/mg,19 ×10⁻⁶ cm/s,,
O=S(=O)(N[C@H](c1ccccc1)c1cc2ccccc2o1)c1ccc2c(c1)OCCCO2,> 399 µL/min/mg,,,
O=S(=O)(NC(c1ccccc1)c1cc2ccccc2o1)c1ccc2c(c1)OCCCO2 (stereo not given),,,,EC50 [24]: > 100 µM; Kd [23]: > 20 µM
C[C@@](O)(c1cccc(-c2cccc3cc([C@H](NS(=O)(=O)C4CC4)c4ccccc4Cl)sc23)c1)C(F)(F)F,< 14 µL/min/mg,,,
C[C@](O)(c1cccc(-c2cccc3cc([C@H](NS(=O)(=O)C4CC4)c4ccccc4Cl)sc23)c1)C(F)(F)F,< 14 µL/min/mg,,,
O=S(=O)(N[C@@H](c1cc2ccccc2s1)c1ccccc1Cl)c1ccccc1,> 399 µL/min/mg,,> 12.5 µM,
O=S(=O)(N[C@@H](c1cc2ccccc2s1)c1ccccc1Cl)C1CC1,> 399 µL/min/mg,,> 12.5 µM,
CC(C)(O)c1ccnc(-c2cccc3cc([C@H](NS(=O)(=O)C4CC4)c4c(F)cccc4Cl)sc23)c1,18 µL/min/mg,9.5 ×10⁻⁶ cm/s,,
C[C@](O)(c1ccnc(-c2cccc3cc([C@H](NS(=O)(=O)C4CC4)c4ccccc4Cl)sc23)c1)C(F)(F)F,< 14 µL/min/mg,2.4 ×10⁻⁶ cm/s,,
